Earlier results, collected in patent US20040192715A1, “Methods of administering opioid antagonists and compositions thereof” (priority 2003, published 2004).

What was measured:
[1] = oral administration
mice = settings: parenteral administration to mice

In the case of `O=C1CC[C@@]2(O)[C@H]3Cc4ccc(O)c5c4[C@@]2(CCN3CC2CC2)C1O5` (stereo partly drawn) [naltrexone, 17-(cyclopropylmethyl) -4,5-epoxy-3,14-dihydroxymorphinan-6-one], the oral bioavailability [1] is listed as 5-40%, the analgesia (mice) is listed as “produce analgesia” and the protein binding is listed as “approximately 21%”.
